# Source: patent publication US5843917A, “5-Fluorouracil derivatives” (priority 1993, dated 1998)
# Like-named read-outs stand apart in the source and are kept apart here.
# Key:
# [1] = tested on: DPD; assay: Protection of 5-FU from DPD catabolism by release of 5-EU from nucleosides (urinary recovery of 5-FU in rats); type: in vivo; settings: rat; oral predose 0.03, 0.3 and 3.0 mg/kg, then 25 mg/kg 5-FU
# Protocol: 5-FU and 5-EU bases and nucleosides were dissolved in deionized HPLC grade water immediately prior to dosing. […] 5-EU and 5-EU nucleosides were dosed to animals 0.5 hr prior to dosing with 5-FU and 5-FU nucleosides. Dosing was routinely performed between 11 am and 1 pm. An approximate volume of 300 μL was used for each dose. Rats were placed in individual Nalge metabolism cages, which separate urine and faeces, and continued on a 12 hr light/dark schedule post-dosing.
# 5 ml of a thoroughly mixed urine sample was filtered through a Millex GS 0.22 μm filter (Millipore, Bedford, Mass.) and frozen prior to HPLC analysis. 1 ml of the thawed primary filtered solution was diluted with 2 ml of water and particulates were removed from this diluted stock solution using a Centrifree micro partition system (Amicon Division, W. R. Grace and Co., Beverly Mass.). […]
# [2] = tested on: uracil reductase; settings: cited from earlier work
# [3] = literature reports; combination with 5-fluorouracil or its prodrug; cited from earlier work
# [4] = Urinary recovery of 5-FU in rats for 5-FU and various 5-FU containing nucleosides; type: in vivo; settings: rat, urine, po, p.o., read-out: % 5-FU Recovery 0-24 hr Urine (Average of Two Experiments)
# Protocol: (§1) 5-FU and 5-EU bases and nucleosides were dissolved in deionized HPLC grade water immediately prior to dosing. All animals were dosed once, p.o. via gastric gavage at the indicated mg/kg dose for each compound (See Results Section and Figures). 5-EU and 5-EU nucleosides were dosed to animals 0.5 hr prior to dosing with 5-FU and 5-FU nucleosides. Dosing was routinely performed between 11 am and 1 pm. An approximate volume of 300 μL was used for each dose. Rats were placed in individual Nalge metabolism cages, which separate urine and faeces, and continued on a 12 hr light/dark schedule post-dosing. Mice were treated post-dose in a similar manner with the exception that 5 mice were housed per cage.
# (§2) Urine from each cage was collected into 0-24 hr and 24-48 hr post-dose fractions. Cages were rinsed with deionized water prior to collection of each fraction. The combined volume of urine and rinse was brought to a standard volume with deionized water.
# (§3) 5 ml of a thoroughly mixed urine sample was filtered through a Millex GS 0.22 μm filter (Millipore, Bedford, Mass.) and frozen prior to HPLC analysis. […] 100 μL of this solution was quantitated for 5-FU by HPLC on a Waters Associates System (Waters Associates, Milford, Mass.) equipped with a Waters 600E system controller, a Waters 600 solvent delivery system, a Waters model 712 WISP automated sample injector, a Waters 484 tuneable absorbance detector, and a Waters 991 photodiode array detector. For quantitiation of 5-FU in rat urine, HPLC was performed on a 250 mm×4.6 mm YMC AQ-303 S-5 120A ODS analytical column (YMC, Morris Plains, N.J.) or on a Microsorb C18 analytical column with identical dimensions (Rainin Instrument Co., Woburn, Mass.). […]
# Plots of UV peak area vs 5-FU concentration were linear between 5 μM and 100 μM. The total urinary recovery of 5-FU was determined by multiplication of the nmoles of 5-FU determined from the standard curve by the dilution factor of 3 (above) and by the standard volume of urine collected. […]
# [5] = Urinary recovery of 5-FU in mice dosed with 5-FU or the succinate linked nucleoside; type: in vivo; settings: mouse; for dose excreted: urine, po, 5 mg/kg
# Protocol: as §1, §2
# 5-FU recovery in mouse urine was determined as above with three exceptions: a Phenomenex 5 μm Extrasil C-18 column (250mm×4.6 mm i.d.; Phenomenex, Torrance, Calif.) was used; an identical gradient with buffer A as aqueous 50 mM formic acid, pH 3.5, with 0.5% acetonitrile and buffer B as aqueous 50 mM formic acid, pH 3.5, with 60% acetonitrile was used; the standard curve was prepared by diluting known concentrations of 5-FU into undosed mouse urine and eluting with the latter described gradient and buffers, instead of isocratic conditions.
# For these studies mice were dosed with either 5 mg/kg 5-FU or given an equivalent dose of 5-FU via the succinate linked nucleoside. The urinary recovery of 5-FU was measured in the presence and absence of 5-EU (Table 2). […] When mice were predosed with 5-EU followed by dosing with 5-FU, the urinary recovery of 5-FU was 50%. Mice dosed with the succinate linked nucleoside gave 25-30% urinary recovery of 5-FU available from the linked compound.
# [6] = tested on: Colon 38; assay: In vivo antitumor testing with s.c. murine Colon 38 carcinoma in C57BL/6 female mice
# Protocol: (§4) In vivo antitumor testing with murine Colon 38 was conducted in-house. C57BL/6 female mice were housed in sterile, polycarbonate, filter-capped Microisolator cages (Lab Products, Inc., Maywood, N.J.) containing sterile hardwood bedding. Mice were fed sterile rodent chow and filter-sterilised water ad libitum. All manipulations of these mice were conducted in laminar-flow biosafety hoods. Colon 38 carcinoma was obtained from the Development Therapeutics Program Tumour Repository. Mice were implanted s.c. with 70 mg tumour fragments using a number 13 trocar. There were 10 mice in the control group that received tumour implants without drug treatment. There were 5 mice in each group treated with the dose and compounds as described below. Treatment began on day 16 post tumour implant and compounds were dosed once/day for 9 days. 5-FU was dosed at 15, 20, 25, 30, and 40 mg/kg.. […] Tumour weights were calculated three times per week from measurements of tumour length and width. Antitumor activity was expressed as the days delay in tumour growth (T-C). T-C was calculated as the difference in the median of days for treated animals minus control animals for tumour mass to double twice post initial day of dosing (Day 16). Tumour-free survivors were not excluded from T-C calculations. Surviving mice were sacrificed after day 56.
# [7] = Urinary recovery of 5-FU in rats dosed with the succinate linked nucleoside; type: in vivo; settings: rat; 25 mg/kg 5-FU equivalent
# Protocol: as §1
# Urine from each cage was collected into 0-24 hr and 24-48 hr post-dose fractions. […]
# as §3, with “detector.” for “detector. For quantitiation of 5-FU in rat urine, HPLC was performed on a 250 mm×4.6 mm YMC AQ-303 S-5 120A ODS analytical column (YMC, Morris Plains, N.J.) or on a Microsorb C18 analytical column with identical dimensions (Rainin Instrument Co., Woburn, Mass.).”
# Rats were dosed 25 mg/kg 5-FU equivalent with the succinate linked nucleosides. […] 5-FU was not detected in the 24-48 hr urine.
# [8] = In vivo antitumor testing with s.c. murine Colon 38 carcinoma in C57BL/6 female mice; settings: mouse, in vivo, sc, mice with s.c. Colon 38
# Protocol: as §4
smiles,measurement,setting,value
C#Cc1cn([C@@H]2O[C@H](CO)[C@@H](O)[C@@H]2O)c(=O)[nH]c1=O [arabinoside of 5-EU],dose response for urinary recovery of 5-FU,[1],A direct dose response for urinary recovery of 5-FU was observed
"C#Cc1cn([C@H]2C[C@H](O)[C@@H](COP(=O)(O)O)O2)c(=O)[nH]c1=O [2'-deoxy-5'-monophosphate of 5-EU, 1-(2-Deoxy-β-D-Erythro-Pentofuranosyl)-5-Ethynyluracil 5'-Monophosphate]",dose response for urinary recovery of 5-FU,[1],A direct dose response for urinary recovery of 5-FU was observed
"O=c1[nH]cc(C=CBr)c(=O)[nH]1 [5-(2-bromovinyl)-uracil (BVU), 5-(2-bromovinyl)-uracil]",inhibition of dihydrothymidine dehydrogenase,"[2]; Cancer Research 46, 1094, 1986",is an inhibitor of dihydrothymidine dehydrogenase
same,effect on 5-fluorouracil metabolism and antitumour activity,[3],retards the metabolism of 5-fluorouracil and enhances its antitumour activity
"O=c1[nH]cc(F)c(=O)[nH]1 [Example 5-FU, 5-fluorouracil]",dose excreted at 24 h,"[4]; 5 mg/kg, 5-FU 5 mg/kg, 5-EU predose 2 mg/kg",52%
same,dose excreted at 24 h,"[4]; 5 mg/kg, 5-FU 5 mg/kg, no predose",< 5%
same,dose excreted at 24 h,"[4]; 25 mg/kg, 5-FU 25 mg/kg, 5-EU predose 0.03 mg/kg",43 to 63%
same,dose excreted,"[5]; 5 mg/kg 5-FU, predosed with 5-EU, read-out: urinary recovery of 5-FU",50%
same,dose excreted,"[5]; 5 mg/kg equivalent 5-FU, 5-EU predose 2 mg/kg, Table 2, read-out: Recovery 5-FU (%)",51%
same,dose excreted,"[5]; 5 mg/kg equivalent 5-FU, no predose, Table 2, read-out: Recovery 5-FU (%)",0%
same,5-FU detection in the urine,"[5]; 5 mg/kg 5-FU, without 5-EU predose",could not be detected
same,Tumour-free Survivors (Day 56),[6]; 25 mg/kg 5-FU equivalent,0/5
same,Antitumour Activity T-C,"[6]; 25 mg/kg 5-FU equivalent, once/day for 9 days",14.9 days
same,Tumour-free Survivors (Day 56),[6]; 30 mg/kg 5-FU equivalent,0/5
same,Antitumour Activity T-C,"[6]; 30 mg/kg 5-FU equivalent, once/day for 9 days",23.6 days
same,Tumour-free Survivors (Day 56),[6]; 40 mg/kg 5-FU equivalent,0/5
same,Antitumour Activity T-C (column entry Toxic),"[6]; 40 mg/kg 5-FU equivalent, once/day for 9 days",Toxic
O=c1[nH]c(=O)n([C@H]2C[C@H](O)[C@@H](CO)O2)cc1C=CBr [5-(2-bromovinyl)-2'-deoxyuridine],effect on 5-fluorouracil metabolism and antitumour activity,[3],enhances the antitumour activity of 5-fluorouracil and 5-deoxy-5-fluorouridine
"C#Cc1c[nH]c(=O)[nH]c1=O [Example 5-EU, 5-ethynyluracil]",potency as an inactivator of uracil reductase relative to BVU,[2]; relative to BVU,100 fold
"C#Cc1cn([C@H]2C[C@H](OC(=O)CCC(=O)O[C@H]3C[C@H](n4cc(F)c(=O)[nH]c4=O)O[C@@H]3CO)[C@@H](CO)O2)c(=O)[nH]c1=O [Example 1, 5-Ethynyl-5""-fluoro-3',3""-O-succinylbis-(1-(2-deoxy-β-D-erythro-pentofuranosyl)uracil)]",5-FU in the 24-48 hr urine,[7],not detected
same,improvement of 5-FU urinary recovery by 5-EU predose,[5]; predosed with 5-EU then succinate linked nucleoside,no improvement
same,MTD,"[8]; 5-FU and 5-EU equivalents, read-out: toxic at doses, as 5-FU and 5-EU equivalents",> 4 mg/kg
same,MTD,"[8]; dose of the linked compound, once/day for 9 days, read-out: toxic at doses",> 17.9 mg/kg
same,Tumour-free Survivors (Day 56),[6]; 1 mg/kg 5-FU equivalent,0/5
same,Antitumour Activity T-C,"[6]; 1 mg/kg 5-FU equivalent, once/day for 9 days",12.9 days
same,Tumour-free Survivors (Day 56),[6]; 2 mg/kg 5-FU equivalent,2/5
same,Antitumour Activity T-C,"[6]; 2 mg/kg 5-FU equivalent, once/day for 9 days",> 27.9 days
